From patent publication US12281149B2, “Modulators of G-protein coupled receptors” (priority 2021, dated 2025)
pEC50: −log10 of the molar value. *1 amine or outer side, *2 acyl side, *3 side chain or, on linkers, in order; H or OH if unused. Where a SMILES comes first, the peptide text is derived from it. Side-chain parts run from the residue outwards. [ ]: non-standard residue; d: D form. The star is where a group is joined. C20 diacid = O=C(O)CCCCCCCCCCCCCCCCCCC(=O)*; X56 = CC(C)(C(=O)*)c1cc(F)cc(C(N)=O)c1; γGlu = O=C(O)[C@H](CCC(=O)[*:2])N[*:1]; X39 = CCC(CC)(C(=O)*)c1ccc(Cl)cc1; X80 = CC1CC(C(=O)*)(n2cccn2)CCO1; AEEA = NCCOCCOCC(=O)O; Aib = CC(C)(N)C(=O)O; CO = O=C([*:1])[*:2]; X63 = Fc1ccc(N*)cc1F; GABA = NCCCC(=O)O; βAla = NCCC(=O)O

Legend:
Format in all cases: cell-based
GLP-1 receptor [1] = molecular target: T1, GLP-1 receptor (Homo sapiens, UniProt P43220); assay: PathHunter β-arrestin assay, GLP-1 receptor; parameters: host or cells: PathHunter CHO-K1 GLP1R β-Arrestin Cell Line; details: β-arrestin-2 recruitment, PathHunter CHO-K1 GLP1R β-Arrestin Cell Line, 90 min at 37° C.; normalized to GLP-1; read-out: GLP-1R β Arrestin EC50
T1 sequence (P43220 24-463): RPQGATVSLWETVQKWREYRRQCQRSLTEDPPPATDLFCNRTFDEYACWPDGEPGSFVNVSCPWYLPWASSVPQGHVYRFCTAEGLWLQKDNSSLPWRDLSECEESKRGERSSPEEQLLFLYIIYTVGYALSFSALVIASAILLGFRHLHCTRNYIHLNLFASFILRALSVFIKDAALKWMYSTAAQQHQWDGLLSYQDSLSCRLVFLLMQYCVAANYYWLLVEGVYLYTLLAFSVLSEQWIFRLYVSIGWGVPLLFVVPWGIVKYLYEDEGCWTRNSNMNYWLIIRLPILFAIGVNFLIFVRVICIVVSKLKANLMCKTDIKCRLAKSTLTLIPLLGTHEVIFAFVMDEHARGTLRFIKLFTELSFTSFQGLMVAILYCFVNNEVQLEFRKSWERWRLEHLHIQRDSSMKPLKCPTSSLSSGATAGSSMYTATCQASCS

GIP receptor [2] = molecular target: T2, GIP receptor (Homo sapiens, UniProt P48546); assay: PathHunter β-arrestin assay, GIP receptor; parameters: host or cells: PathHunter CHO-K1 GIPR β-Arrestin Cell Line; details: β-arrestin-2 recruitment, PathHunter CHO-K1 GIPR β-Arrestin Cell Line, 90 min at 37° C.; normalized to GIP; read-out: GIPR β Arrestin EC50
T2 sequence (P48546 22-466): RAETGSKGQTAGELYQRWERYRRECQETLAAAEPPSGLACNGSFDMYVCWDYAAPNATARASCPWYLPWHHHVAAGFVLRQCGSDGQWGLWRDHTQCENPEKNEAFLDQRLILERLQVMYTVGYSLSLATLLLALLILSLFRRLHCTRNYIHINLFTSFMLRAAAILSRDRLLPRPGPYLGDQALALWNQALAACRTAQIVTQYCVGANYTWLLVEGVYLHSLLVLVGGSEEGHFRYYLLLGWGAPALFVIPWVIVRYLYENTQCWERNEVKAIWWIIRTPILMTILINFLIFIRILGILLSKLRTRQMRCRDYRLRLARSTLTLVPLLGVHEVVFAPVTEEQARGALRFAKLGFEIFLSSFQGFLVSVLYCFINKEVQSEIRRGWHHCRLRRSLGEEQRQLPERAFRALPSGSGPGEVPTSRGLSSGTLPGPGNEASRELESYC

GIP receptor [3] = molecular target: T2, GIP receptor; assay: HitHunter cAMP assay, GIP receptor; details: for pEC50: CHO cells stably expressing GIP receptor, cAMP accumulation, 30 min, read-out: EC50 GIP-1R; for Emax: CHO cells, cAMP, normalized to maximum signal from GIP (high) and DMSO (low), read-out: Emax GIP-1R
GLP-1 receptor [4] = molecular target: T1, GLP-1 receptor; assay: HitHunter cAMP assay, GLP-1 receptor; details: for pEC50: CHO cells stably expressing human GLP-1 receptor, cAMP accumulation, 30 min, read-out: EC50 GLP-1R; for Emax: CHO cells, cAMP, normalized to maximum signal from GLP-1 (high) and DMSO (low), read-out: Emax GLP-1R

| Structure (SMILES) | pEC50 (GLP-1 receptor [1]) | pEC50 (GIP receptor [2]) | pEC50 (GIP receptor [3]) | Emax (GIP receptor [3]) [%] | pEC50 (GLP-1 receptor [4]) | Emax (GLP-1 receptor [4]) [%] |
| --- | --- | --- | --- | --- | --- | --- |
| CC[C@H](C)[C@H](NC(=O)[C@H](CC(C)C)NC(=O)[C@H](Cc1c[nH]c2ccccc12)NC(=O)[C@H](CCC(N)=O)NC(=O)[C@@H](NC(=O)[C@H](Cc1ccccc1)NC(=O)[C@H](C)NC(=O)[C@H](CCCCNC(=O)COCCOCCNC(=O)COCCOCCNC(=O)CC[C@H](NC(=O)CCCCCCCCCCCCCCCCCCC(=O)O)C(=O)O)NC(=O)[C@H](CCC(N)=O)NC(=O)[C@H](C)NC(=O)[C@@H](NC(=O)[C@H](CCCCN)NC(=O)[C@H](CC(=O)O)NC(=O)[C@H](CC(C)C)NC(=O)C(C)(C)NC(=O)[C@@H](NC(=O)[C@H](CO)NC(=O)[C@H](Cc1ccc(O)cc1)NC(=O)[C@H](CC(=O)O)NC(=O)[C@H](CO)NC(=O)[C@@H](NC(=O)[C@H](Cc1ccccc1)NC(=O)[C@@H](NC(=O)CNC(=O)[C@H](CCC(=O)O)NC(=O)CCNC(=O)C1(n2cccn2)CCOC(C)C1)[C@@H](C)O)[C@@H](C)O)[C@@H](C)CC)[C@@H](C)CC)C(C)C)C(=O)N[C@@H](C)C(=O)NCC(=O)NCC(=O)N1CCC[C@H]1C(=O)N[C@@H](CO)C(=O)N[C@@H](CO)C(=O)NCC(=O)N[C@@H](C)C(=O)N1CCC[C@H]1C(=O)N1CCC[C@H]1C(=O)N1CCC[C@H]1C(=O)N[C@@H](CO)C(N)=O (stereo partly drawn) [Compound 105] ({X80-βAla}-EGTFTSDYSI[Aib]LDKIAQK([AEEA-AEEA-γGlu-C20 diacid])AFVQWLIAGGPSSGAPPPS-NH2) | < 6.00 | < 6.00 | 8.00 to 9.00 | 112 | 9.00 to 10.00 | 95 |
| CC[C@H](C)[C@H](NC(=O)[C@H](CC(C)C)NC(=O)[C@H](Cc1c[nH]c2ccccc12)NC(=O)[C@H](CCC(N)=O)NC(=O)[C@@H](NC(=O)[C@H](Cc1ccccc1)NC(=O)[C@H](C)NC(=O)[C@H](CCCCNC(=O)COCCOCCNC(=O)COCCOCCNC(=O)CC[C@H](NC(=O)CCCCCCCCCCCCCCCCCCC(=O)O)C(=O)O)NC(=O)[C@H](CCC(N)=O)NC(=O)[C@H](C)NC(=O)[C@@H](NC(=O)[C@H](CCCCN)NC(=O)[C@H](CC(=O)O)NC(=O)[C@H](CC(C)C)NC(=O)C(C)(C)NC(=O)[C@@H](NC(=O)[C@H](CO)NC(=O)[C@H](Cc1ccc(O)cc1)NC(=O)[C@H](CC(=O)O)NC(=O)[C@H](CO)NC(=O)[C@@H](NC(=O)[C@H](Cc1ccccc1)NC(=O)[C@@H](NC(=O)CNC(=O)[C@H](CCC(=O)O)NC(=O)CCNC(=O)C(C)(C)c1cc(F)cc(C(N)=O)c1)[C@@H](C)O)[C@@H](C)O)[C@@H](C)CC)[C@@H](C)CC)C(C)C)C(=O)N[C@@H](C)C(=O)NCC(=O)NCC(=O)N1CCC[C@H]1C(=O)N[C@@H](CO)C(=O)N[C@@H](CO)C(=O)NCC(=O)N[C@@H](C)C(=O)N1CCC[C@H]1C(=O)N1CCC[C@H]1C(=O)N1CCC[C@H]1C(=O)N[C@@H](CO)C(N)=O [Compound 159] ({X56-βAla}-EGTFTSDYSI[Aib]LDKIAQK([AEEA-AEEA-γGlu-C20 diacid])AFVQWLIAGGPSSGAPPPS-NH2) | < 6.00 | < 6.00 | 7.00 to 8.00 | 104 | 8.00 to 9.00 | 100 |
| CC[C@H](C)[C@H](NC(=O)[C@H](CO)NC(=O)[C@H](Cc1ccc(O)cc1)NC(=O)[C@H](CC(=O)O)NC(=O)[C@H](CO)NC(=O)[C@@H](NC(=O)[C@H](Cc1ccccc1)NC(=O)[C@@H](NC(=O)CNC(=O)[C@H](CCC(=O)O)NC(=O)CCNC(=O)C(C)(C)c1cc(F)cc(C#N)c1)[C@@H](C)O)[C@@H](C)O)C(=O)N[C@@H](Cc1ccc(O)cc1)C(=O)N[C@@H](CC(C)C)C(=O)N[C@@H](CC(=O)O)C(=O)N[C@@H](CCCCN)C(=O)N[C@@H](CCC(N)=O)C(=O)N[C@@H](C)C(=O)N[C@@H](C)C(=O)N[C@@H](CCCCNC(=O)COCCOCCNC(=O)COCCOCCNC(=O)CC[C@H](NC(=O)CCCCCCCCCCCCCCCCCCC(=O)O)C(=O)O)C(=O)N[C@@H](CCC(=O)O)C(=O)N[C@@H](Cc1ccccc1)C(=O)N[C@H](C(=O)N[C@@H](CC(N)=O)C(=O)N[C@@H](Cc1c[nH]c2ccccc12)C(=O)N[C@@H](CC(C)C)C(=O)N[C@@H](CC(C)C)C(=O)N[C@@H](C)C(=O)NCC(=O)NCC(=O)N1CCC[C@H]1C(=O)N[C@@H](CO)C(=O)N[C@@H](CO)C(=O)NCC(=O)N[C@@H](C)C(=O)N1CCC[C@H]1C(=O)N1CCC[C@H]1C(=O)N1CCC[C@H]1C(=O)N[C@@H](CO)C(N)=O)C(C)C [Compound 184] | < 6.00 | < 6.00 | 6.00 to 7.00 | 90 | 8.00 to 9.00 | 99 |
| CC[C@H](C)[C@H](NC(=O)[C@H](CC(C)C)NC(=O)[C@H](Cc1c[nH]c2ccccc12)NC(=O)[C@H](CCC(N)=O)NC(=O)[C@@H](NC(=O)[C@H](Cc1ccccc1)NC(=O)[C@H](C)NC(=O)[C@H](CCCCNC(=O)COCCOCCNC(=O)COCCOCCNC(=O)CC[C@H](NC(=O)CCCCCCCCCCCCCCCCCCC(=O)O)C(=O)O)NC(=O)[C@H](CCC(N)=O)NC(=O)[C@H](C)NC(=O)[C@@H](NC(=O)[C@H](CCCCN)NC(=O)[C@H](CC(=O)O)NC(=O)[C@H](CC(C)C)NC(=O)C(C)(C)NC(=O)[C@@H](NC(=O)[C@H](CO)NC(=O)[C@H](Cc1ccc(O)cc1)NC(=O)[C@H](CC(=O)O)NC(=O)[C@H](CO)NC(=O)[C@@H](NC(=O)[C@H](Cc1ccccc1)NC(=O)[C@@H](NC(=O)CNC(=O)[C@H](CCC(=O)O)NC(=O)CCNC(=O)C(CC)(CC)c1ccc(Cl)cc1)[C@@H](C)O)[C@@H](C)O)[C@@H](C)CC)[C@@H](C)CC)C(C)C)C(=O)N[C@@H](C)C(=O)NCC(=O)NCC(=O)N1CCC[C@H]1C(=O)N[C@@H](CO)C(=O)N[C@@H](CO)C(=O)NCC(=O)N[C@@H](C)C(=O)N1CCC[C@H]1C(=O)N1CCC[C@H]1C(=O)N1CCC[C@H]1C(=O)N[C@@H](CO)C(N)=O [Compound 176] ({X39-βAla}-EGTFTSDYSI[Aib]LDKIAQK([AEEA-AEEA-γGlu-C20 diacid])AFVQWLIAGGPSSGAPPPS-NH2) | < 6.00 | > 6.00 | 8.00 to 9.00 | 110 | 8.00 to 9.00 | 110 |
| CC[C@H](C)[C@H](NC(=O)[C@H](CC(C)C)NC(=O)[C@H](Cc1c[nH]c2ccccc12)NC(=O)[C@H](CCC(N)=O)NC(=O)[C@@H](NC(=O)[C@H](Cc1ccccc1)NC(=O)[C@H](C)NC(=O)[C@H](CCCCNC(=O)COCCOCCNC(=O)COCCOCCNC(=O)CC[C@H](NC(=O)CCCCCCCCCCCCCCCCCCC(=O)O)C(=O)O)NC(=O)[C@H](CCC(N)=O)NC(=O)[C@H](C)NC(=O)[C@@H](NC(=O)[C@H](CCCCN)NC(=O)[C@H](CC(=O)O)NC(=O)[C@H](CC(C)C)NC(=O)C(C)(C)NC(=O)[C@@H](NC(=O)[C@H](CO)NC(=O)[C@H](Cc1ccc(O)cc1)NC(=O)[C@H](CC(=O)O)NC(=O)[C@H](CO)NC(=O)[C@@H](NC(=O)[C@H](Cc1ccccc1)NC(=O)[C@@H](NC(=O)CNC(=O)[C@H](CCC(=O)O)NC(=O)CCCNC(=O)CNC(=O)Nc1ccc(F)c(F)c1)[C@@H](C)O)[C@@H](C)O)[C@@H](C)CC)[C@@H](C)CC)C(C)C)C(=O)N[C@@H](C)C(=O)NCC(=O)NCC(=O)N1CCC[C@H]1C(=O)N[C@@H](CO)C(=O)N[C@@H](CO)C(=O)NCC(=O)N[C@@H](C)C(=O)N1CCC[C@H]1C(=O)N1CCC[C@H]1C(=O)N1CCC[C@H]1C(=O)N[C@@H](CO)C(N)=O [Compound 264] ({X63-CO}-G[GABA]EGTFTSDYSI[Aib]LDKIAQK([AEEA-AEEA-γGlu-C20 diacid])AFVQWLIAGGPSSGAPPPS-NH2) | < 6.00 | > 6.00 | 8.00 to 9.00 | 106 | 8.00 to 9.00 | 97 |
